Experimental data published in patent US20070292888A1, “Methods for Measuring Enzyme Activities in Cells, Blood, Tumors and Tissues” (GEN-PATH PHARMACEUTICALS, INC., priority 2004, published 2007).

Target: T1, transketolase (TK) (Mus musculus, UniProt P40142)
T1 construct: from tissue; host or cells: mouse blood, spleen, tumor, kidney, lung, liver (crude lysates)
T1 sequence (P40142 1-623): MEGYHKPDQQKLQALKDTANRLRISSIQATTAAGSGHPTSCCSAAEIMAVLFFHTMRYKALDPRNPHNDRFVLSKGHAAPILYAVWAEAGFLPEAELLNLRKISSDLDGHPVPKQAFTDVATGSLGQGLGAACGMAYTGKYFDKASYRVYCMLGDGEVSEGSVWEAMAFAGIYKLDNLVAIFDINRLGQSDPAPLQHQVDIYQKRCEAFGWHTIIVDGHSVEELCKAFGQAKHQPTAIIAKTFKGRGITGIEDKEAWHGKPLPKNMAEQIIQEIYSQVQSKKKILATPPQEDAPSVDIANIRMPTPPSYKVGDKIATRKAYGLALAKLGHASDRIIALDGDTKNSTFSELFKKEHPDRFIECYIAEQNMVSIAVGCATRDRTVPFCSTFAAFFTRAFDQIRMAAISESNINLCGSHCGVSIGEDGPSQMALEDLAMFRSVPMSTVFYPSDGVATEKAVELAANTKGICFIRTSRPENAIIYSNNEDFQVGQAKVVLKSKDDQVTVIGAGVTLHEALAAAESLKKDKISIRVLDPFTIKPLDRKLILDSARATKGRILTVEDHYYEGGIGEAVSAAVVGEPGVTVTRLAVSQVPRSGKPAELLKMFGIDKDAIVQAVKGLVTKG
Experiment: Transketolase activity in blood, tumors and tissues of treated mice (fluorescence NADH assay)
Format: in vivo
Method: Blood samples from mice were taken (40 μl whole blood) serially or from mice sacrificed at the end of the experiment. Tissues, such as tumors (e.g. from implantation, xenograft, or arising spontaneously), brain, heart, kidney, liver, lung and spleen were taken and flash frozen in liquid nitrogen or on dry ice and stored in −80° C. until time of assay. Four volumes of cold lysis buffer (20 mM HEPES, pH 7.5, 1 mM EDTA, 0.2 g/l Triton X-100® and 0.2 g/L sodium deoxycholate, supplemented with 1 mM DTT and 1 mM PMSF just before use) were added to the blood, which was dissolved by vortexing. For blood that was frozen before coagulation, a clear lysate was obtained. If coagulation occurred, homogenization was used as described below for tissue. Tissues were suspended in lysis buffer in 10 ml round bottom tubes and homogenized with PowerGen 125® (Fisher Scientific) for four seconds at highest power while submerged in an ice-water bath. This step was repeated after a few seconds, as necessary. The lysate was used right away or else flash frozen and stored at −80° C. until assay time. Eighty microliters (80 μl) of lysate (containing 5 mg tissue/ml lysate for TK and kGDH, 0.5 mg/ml for G6PDH) were put directly in individual wells of a 96-well clear-bottomed assay plate. Twenty microliters (20 μl) of 5× reaction mix was added to initiate each enzymatic reaction.
Each reaction was monitored for the appearance of NADH (for transketolase, alpha-ketoglutarate dehydrogenase, pyruvate dehydrogenase) or NADPH (for glucose-6-phosphate dehydrogenase) at room temperature in a fluorescent plate reader with excitation at 340 nm and emission at 470 nm in kinetic mode. The velocity was determined by the slope of the initial linear range of increasing fluorescence, expressed in fluorescent units (FU)/min. The protein concentration in the lysate was determined using Bradford assays (BioRad) with BSA as a standard. The enzymatic velocity was normalized by the total protein concentration for inter-sample comparison. To obtain reliable results across samples, similar starting protein concentrations were prepared (within approximately 30%) so that the normalized velocity required only small adjustments. This was achieved by weighing the tissue and putting in lysis buffer so that the suspensions contained the same amount of tissue/ml lysis buffer for all samples.
For TK, 15 μl of 5× assay buffer containing final concentrations of 50 mM HEPES, 40 mM KCl, 2.5 mM MgCl2, 5 mM NaArsenate, 1 mM NAD, 2 unit/ml glyceraldehydes-3-phosphate dehydrogenase (GAPDH) was added to 80 μl of lysate. Reaction kinetics were monitored on a fluorescent plate reader to allow any possible background activity via GAPDH to burn out. Then 5 μl of substrate mix containing final concentrations of 0.5 mM ribose-5-phosphate and 0.5 mM xylulose-5-phosphate was added to initiate the reaction. The reaction kinetics were monitored using a fluorescent plate reader, and the slope of the initial linear range was recorded as the velocity of the reaction (FU/min). See FIG. 1 for the reaction scheme.
To investigate the amount of in vivo enzyme inhibition following treatment with an inhibitor, we administered a single dose of N3PT (100 mg/kg, intraperitoneally [i.p.]) and blood, spleen and brain samples were collected at various times from 0-120 hours after dosing. The enzymatic activities were determined as described in Example 1. TK activity was measured in blood and spleen. Because TK activity in the brain is below the detection limit of the assay, kGDH activity was measured in brain samples. Measurements were taken at various time intervals
We measured enzyme activity in an expanded panel of tissues from mice treated with N3PT or OxyT for 11 days i.p., twice per day. Samples were taken from tumors, blood, brain, heart, kidney, lung and spleen, and TK, kGDH and G6PDH activities were determined as described above.

percent inhibition of TK activity in tumors (11 days i.p. twice per day, 100 mg/kg, compared to vehicle control): 70% | liver enzymatic (TK) activity (11 days i.p. twice per day, liver): hardly affected | Inhibition of transketolase activity in the spleen (single dose 100 mg/kg i.p., 8-24 hours post-treatment): up to 35% | Transketolase inhibition at 1 hour post-treatment (single dose 100 mg/kg i.p., 1 hour post-treatment): detectable | Transketolase inhibition at the final sampling at 120 hours (single dose 100 mg/kg i.p., 120 hours (5 days)): still evident | inhibition of transketolase activity in the blood (single dose N3PT 100 mg/kg i.p., at the nadir (12 hours)): 80%
Structure (SMILES): Cc1ccc(C[n+]2csc(CCO)c2C)c(N)n1 [N3PT, 3-[(2-amino-6-methyl-3-pyridinyl)methyl]-5-(2-hydroxyethyl)-4-methyl thiazolium]
